Laboratory results from patent US20130096160A1, “ARYLTHIAZOLYL PIPERIDINES AND RELATED COMPOUNDS AS MODULATORS OF SURVIVAL MOTOR NEURON (SMN) PROTEIN PRODUCTION” (Secretary, Department of Health and Human Services, priority 2010, published 2013).

System: SMN2-luciferase reporter
Experiment: SMN2-luciferase reporter qHTS assay
Assay type: cell-based, human
Design: key to Curve Class: A curve class of 1.1 is a full agonist/antagonist; a curve class of 4 indicates the compound is inactive
Conditions: for Curve Class: agonist/antagonist character of the concentration-response, lower values = more significant concentration-response; for Increased SMN2 activity: percent increase (or decrease) in SMN2 levels compared to control in which no test compound is added
Description: A cell-based quantitative high throughput screening (qHTS) assay is used to identify compounds able to increase SMN production. The assay uses a SMN2-luciferase reporter to determine if exon 7 of the SMN gene is expressed, which correlates with increased full-length SMN production from the SMN2 gene. As controls, a homologue SMN1-luciferase reporter cell line looks for variations in expression of the SMN1 gene and a cell line with just the luciferase reporter looks at the capacity of the compounds to inhibit luciferase. In addition, increments in SMN production by lead compounds were confirmed by Western-Blot analysis using SMA patient fibroblasts.
For the qHTS assay, concentration-response profiles are generated at the primary-screen level for each library compound to minimize the number of false positives. A dilution series consisting of seven points separated by five-fold concentration differences is prepared for each compound, yielding a concentration series that spans a range of about four orders of magnitude, for example from a high concentration of 50 micromolar to a low concentration of 3.2 nanomolar and providing adequate data for fitting to a Hill equation. For the assay, the SMN2 reporter cell line was plated at a density of ˜2000 cells/well in complete media (phenol red free DMEM, 10% detacl calf serum, and 1× pen/strep), in 1536 well white solid bottom tissue culture treated plates (Greiner). Cells were allowed to adhere and recover at 37 C in 5% CO2 for 10-12 hours. Compounds were added to the plates by a Pintool (Kalypsys) at a volume of 23 nl/well. Cells were incubated in the presence of compounds for 2 days at 37 C in 5% CO2. In order to quantify luciferase reporter levels, 3 ul/well of OneGlo (Promega) was added to each well and incubated at room temperature for 10 minutes. Luminescence from the reporter in each well is measured using a Viewlux CCD based imager (Perkin Elmer) with an integration time of 30 seconds and a binning of 2× in luminescence mode. Sodium butyrate was used as the positive control compound for luciferase induction and a column of 32 wells of 9.2 mM compound on each plate was used to monitor assay performance.
The SMN reporters used herein are modified from those previously described (M. L. Zhang, C. L. Lorson, E. J. Androphy and J. Zhou, An in vivo reporter system for measuring increased inclusion of exon 7 in SMN2 mRNA: potential therapy of SMA, Gene Ther 8 (2001), pp. 1532-1538.)
The sequence of the SMN1 reporter vector used herein is given in SEQ ID NO.:1, while that of the SMN2 reporter vector is given in SEQ ID NO.:2.
Each of the SMN reporters is constructed from three separate DNA fragments: (1) an SMN promotor sequence from the transcriptional reporter p 4.0T (SMN1) or p3.4C (SMN2) described in Monani, et al. Biochimica et Biophysica Acta 1445 (1999) 330-336; (2) a modification of the firefly luciferase splicing reporter for SMN1 or SMN2 described by Zhang et al; and (3) a 744 bp SMN cDNA fragment.
The 3.7 kB SMN1 promoter fragment is obtained by restriction of p4.0T with BglII and SacII. A 3.4 kB SMN2 promoter fragment is obtained by restriction of p3.4C with KpnI and SacII; a 300 bp BglII/KpnI fragment from p4.0T is then added to the 3.4 kB SMN2 promoter fragment to yield the final 3.7 kB SMN2 promoter fragment.
The modified SMN1 and SMN2 firefly luciferase splicing reporters are obtained by removing 4 kB of intron 6 in the original reporter system by restriction with SmaI/Swa followed by religation of the reporter. A 4 kB luciferase splicing reporter is then obtaind by digestion with XhoI and NotI.
Ths SMN cDNA fragment is obtained by generating the productof a polymerase chain reaction (PCR) on a cDNA preparation using […] (SEQ ID NO:3) as the forward primer and Tatctcgagtggtccagaaggaaatggaggcagcc (SEQ ID NO:4) as the reverse primer. The PCR product is then digested with XhoI and SacII. […]

For `N#Cc1ccc(-c2csc(N3CCC(C(N)=O)CC3)n2)cc1` [Example 18, 1-(4-(4-Cyanophenyl)Thiazol-2-yl)Piperidine-4-Carboxamide], the “Curve Class” value was 2.2 and the “Increased SMN2 activity” value was 48.75%.

With `NC(=O)C1CCN(c2nc(-c3ccc(F)cc3)cs2)CC1` [Example 19, 1-(4-(4-Fluorophenyl)Thiazol-2-yl)Piperidine-4-Carboxamide] the “Curve Class” value was 1.1 and the “Increased SMN2 activity” value was 287.7%.

With `NC(=O)C1CCN(c2nc(-c3ccc(Cl)cc3)cs2)CC1` [Example 20, 1-(4-(4-Chlorophenyl)Thiazol-2-yl)Piperidine-4-Carboxamide] the “Curve Class” value was 1.1 and the “Increased SMN2 activity” value was 380.6%.

With `Cc1ccc(-c2csc(N3CCC(C(N)=O)CC3)n2)cc1` [Example 21, 1-(4-(4-Methylphenyl)Thiazol-2-yl)Piperidine-4-Carboxamide] the “Curve Class” value was 1.1 and the “Increased SMN2 activity” value was 439.1%.

For `NC(=O)C1CCN(c2nc(-c3ccc(C(F)(F)F)cc3)cs2)CC1` [Example 22, 1-(4-(4-Trifluoromethylphenyl)Thiazol-2-yl)Piperidine-4-Carboxamide], the “Curve Class” value was 1.1 and the “Increased SMN2 activity” value was 386.1%.

For `COc1ccc(-c2csc(N3CCC(C(N)=O)CC3)n2)cc1` [Example 25, 1-(4-(4-Methoxyphenyl)Thiazol-2-yl)Piperidine-4-Carboxamide], the “Curve Class” value was 2.1 and the “Increased SMN2 activity” value was 209.1%.

For `NC(=O)C1CCN(c2nc(-c3cccc(Br)c3)cs2)CC1` [Example 26, 1-(4-(3-Bromophenyl)Thiazol-2-yl)Piperidine-4-Carboxamide], the “Curve Class” value was 2.2 and the “Increased SMN2 activity” value was 57.55%.

`NC(=O)C1CCN(c2nc(-c3ccc(-c4ccccc4)cc3)cs2)CC1` [Example 28, 1-(4-(Biphenyl-4-yl)Thiazol-2-yl)Piperidine-4-Carboxamide] was tested, and the “Curve Class” value was 2.2 and the “Increased SMN2 activity” value was 58.07%.

In the case of `NC(=O)C1CCN(c2nc(-c3ccc([N+](=O)[O-])cc3)cs2)CC1` [Example 29, 1-(4-(4-Nitrophenyl)Thiazol-2-yl)Piperidine-4-Carboxamide], the “Curve Class” value is reported as 2.1 and the “Increased SMN2 activity” value is reported as 254.3%.

With `NC(=O)C1CCN(c2nc(-c3ccccc3)cs2)CC1` [Example 30, 1-(4-Phenylthiazol-2-yl)Piperidine-4-Carboxamide] the “Curve Class” value was 1.1 and the “Increased SMN2 activity” value was 166.6%.

For `Brc1ccc(-c2csc(N3CCCCC3)n2)cc1` [Example 32, 4-(4-Bromophenyl)-2-(Piperidin-1-yl)Thiazole], the “Curve Class” value was 2.1 and the “Increased SMN2 activity” value was 272.6%.

In the case of `NC(=O)C1CCN(c2nc(-c3cccc(F)c3)cs2)CC1` [Example 33, 1-(4-(3-Fluorophenyl)Thiazol-2-yl)Piperidine-4-Carboxamide], the “Curve Class” value is reported as 2.2 and the “Increased SMN2 activity” value is reported as 64%.

In the case of `NC(=O)C1CCN(c2nc(-c3cccc(Cl)c3)cs2)CC1` [Example 34, 1-(4-(3-Chlorophenyl)Thiazol-2-yl)Piperidine-4-Carboxamide], the “Curve Class” value is reported as 2.2 and the “Increased SMN2 activity” value is reported as 53.23%.

In the case of `COc1cccc(-c2csc(N3CCC(C(N)=O)CC3)n2)c1` [Example 35, 1-(4-(3-Methoxyphenyl)Thiazol-2-yl)Piperidine-4-Carboxamide], the “Curve Class” value is reported as 1.1 and the “Increased SMN2 activity” value is reported as 357%.

In the case of `NC(=O)C1CCN(c2nc(-c3cccc([N+](=O)[O-])c3)cs2)CC1` [Example 37, 1-(4-(3-Nitrophenyl)Thiazol-2-yl)Piperidine-4-Carboxamide], the “Curve Class” value is reported as 2.4 and the “Increased SMN2 activity” value is reported as 20.29%.

For `NC(=O)C1CCN(c2nc(-c3ccccc3F)cs2)CC1` [Example 38, 1-(4-(2-Fluorophenyl)Thiazol-2-yl)Piperidine-4-Carboxamide], the “Curve Class” value was 1.1 and the “Increased SMN2 activity” value was 274.6%.

In the case of `NC(=O)C1CCN(c2nc(-c3ccccc3Cl)cs2)CC1` [Example 39, 1-(4-(2-Chlorophenyl)Thiazol-2-yl)Piperidine-4-Carboxamide], the “Curve Class” value is reported as 2.2 and the “Increased SMN2 activity” value is reported as 57.61%.

In the case of `CCOC(=O)C1CCN(c2nc(-c3ccc(Br)cc3)cs2)CC1` [Example 44, Ethyl 1-(4-(4-Bromophenyl)Thiazol-2-yl)Piperidine-4-Carboxylate], the “Curve Class” value is reported as 1.1 and the “Increased SMN2 activity” value is reported as 550.3%.

In the case of `CC(=O)c1ccc(-c2csc(N3CCC(C(N)=O)CC3)n2)cc1` [Example 45, 1-(4-(4-Acetylphenyl)Thiazol-2-yl)Piperidine-4-Carboxamide], the “Curve Class” value is reported as 2.1 and the “Increased SMN2 activity” value is reported as 130.4%.

With `Cc1cccc(-c2csc(N3CCC(C(N)=O)CC3)n2)c1` [Example 46, 1-(4-M-Tolylthiazol-2-yl)Piperidine-4-Carboxamide] the “Curve Class” value was 2.1 and the “Increased SMN2 activity” value was 187.4%.

In the case of `NC(=O)C1CCN(c2nc(-c3ccc4c(c3)OCO4)cs2)CC1` [Example 47, 1-(4-(Benzo[D][1,3]Dioxol-5-yl)Thiazol-2-yl)Piperidine-4-Carboxamide], the “Curve Class” value is reported as 1.1 and the “Increased SMN2 activity” value is reported as 359.16%.

With `NC(=O)C1CCN(c2nc(-c3ccc4occc(=O)c4c3)cs2)CC1` [Example 50, 1-(4-(4-Oxo-4H-Chromen-6-yl)Thiazol-2-yl)Piperidine-4-Carboxamide] the “Curve Class” value was 2.1 and the “Increased SMN2 activity” value was 589.68%.

For `NC(=O)C1CCN(c2nc(-c3cccs3)cs2)CC1` [Example 51, 1-(4-(Thiophen-2-yl)Thiazol-2-yl)Piperidine-4-Carboxamide], the “Curve Class” value was 2.2 and the “Increased SMN2 activity” value was 50.93%.

For `NC(=O)C1CCN(c2nc(-c3ccccc3N)cs2)CC1` [Example 53, 1-(4-(2-Aminophenyl)Thiazol-2-yl)Piperidine-4-Carboxamide], the “Curve Class” value was 3 and the “Increased SMN2 activity” value was 79.57%.

In the case of `CC(=O)c1cccc(-c2csc(N3CCC(C(N)=O)CC3)n2)c1` [Example 55, 1-(4-(3-Acetylphenyl)Thiazol-2-yl)Piperidine-4-Carboxamide], the “Curve Class” value is reported as 1.1 and the “Increased SMN2 activity” value is reported as 356%.

`NC(=O)C1CCN(c2nc(-c3ccc4ccccc4c3)cs2)CC1` [Example 56, 1-(4-(Naphthalen-2-yl)Thiazol-2-yl)Piperidine-4-Carboxamide] was tested, and the “Curve Class” value was 1.1 and the “Increased SMN2 activity” value was 162%.

`NC(=O)C1CCN(c2nc(-c3ccc(N4CCCCC4)nc3)cs2)CC1` [Example 60, 1-(4-(6-(Piperidin-1-yl)Pyridin-3-yl)Thiazol-2-yl)Piperidine-4-Carboxamide] was tested, and the “Curve Class” value was 2.1 and the “Increased SMN2 activity” value was 100%.

With `CN(C)C(=O)c1cccc(-c2csc(N3CCC(C(N)=O)CC3)n2)c1` [Example 62, 1-(4-(3-(Dimethylcarbamoyl)Phenyl)Thiazol-2-yl)Piperidine-4-Carboxamide] the “Curve Class” value was 2.2 and the “Increased SMN2 activity” value was 51.18%.

`NC(=O)C1CCN(c2nc(-c3cccc4sc5ccccc5c34)cs2)CC1` [Example 64, 1-(4-(Dibenzo[b,d]Thiophen-1-yl)Thiazol-2-yl)Piperidine-4-Carboxamide] was tested, and the “Curve Class” value was 2.1 and the “Increased SMN2 activity” value was 369%.

For `Cn1ccc2cc(-c3csc(N4CCC(C(N)=O)CC4)n3)ccc21` [Example 65, 1-(4-(1-Methyl-1H-Indol-5-yl)Thiazol-2-yl)Piperidine-4-Carboxamide], the “Curve Class” value was 1.1 and the “Increased SMN2 activity” value was 534%.

In the case of `NC(=O)C1CCN(c2nc(-c3cc4ccccc4o3)cs2)CC1` [Example 68, 1-(4-(Benzofuran-2-yl)Thiazol-2-yl)Piperidine-4-Carboxamide], the “Curve Class” value is reported as 2.1 and the “Increased SMN2 activity” value is reported as 100%.
